Results: article PMC4947679, “Quantitative In Vitro and In Vivo Evaluation of Intestinal and Blood-Brain Barrier Transport Kinetics of the Plant N-Alkylamide Pellitorine” (BioMed Research International, 2016)
Read-outs that look alike come from different tables or passages of the source.

Tests used:
[1] = set-up: method as in PMID 25481393; conditions: cited from earlier work
[2] = set-up: method as in PMID 24055064; conditions: cited from earlier work
[3] = Caco-2 cell permeability assay; assay type: in vitro ADME, human; conditions: human, Caco-2
Experimental: (§1) The Caco-2 cell line originated from a human colorectal carcinoma and was maintained in Dulbecco's modified Eagle's medium (DMEM) (95% humidity, 37°C, 5% CO2), supplemented with 10% (V/V) fetal bovine serum, 100 U/mL penicillin and 100 μg/mL streptomycin, 2 mM L-glutamine, and 1% nonessential amino acids (all from Invitrogen/GIBCO, Ghent, Belgium).
(§2) The Caco-2 cell intestinal model was used to investigate the gut mucosa permeation of pellitorine. On each Transwell (Corning Costar, New York, USA) membrane insert filter (0.4 μm pore size, 12 mm filter diameter), the cells were seeded at a density of 2.6 · 10^5 cells/cm^2 cells and cultivated in the described supplemented DMEM. Every second day, the medium was changed. During a period of 21–29 days, the cells were grown and differentiated until monolayers were formed. The integrity of the monolayers was checked via the measurement of transepithelial electrical resistance (TEER) of the monolayers with a Millicell-ERS system (Millipore Corp., Bedford, MA, USA) before and after the transport experiments. The experiments were performed in duplicate for each dose solution. Transport experiments were carried out according to Hubatsch et al. in two directions: from the apical-to-basolateral (ab) direction and from the basolateral-to-apical (ba) direction in Hanks' Balanced Salt solution. Two dose solutions of pellitorine (in Anacyclus pyrethrum extract) of 1 μg/mL in 0.5% EtOH (further indicated as DS1) and of 56 μg/mL in 0.5% of a mixture of vitamin E-TPGS (33.3%), EtOH (11.1%), PEG 400 (33.3%), and PG (22.2%) (further indicated as DS2) dissolved in HBSS were tested.
(§3) Final apical volumes of 0.4 mL and basolateral volumes of 1.2 mL were used for 12 mm filter supports during the transport experiment. After 15, 30, 60, 90, and 120 min, samples were taken from the receiver compartment (basolateral to apical transport: 100 μL, apical-to-basolateral transport: 300 μL) and immediately replaced by fresh HBSS. […] Pellitorine was quantified using a ultraperformance liquid chromatography-tandem mass spectrometry (UPLC-MS^2) method as described below.
(§4) The apparent permeability coefficient (P app in cm/s) of pellitorine in DS2 was calculated using a sink condition equation, while P app of pellitorine in DS1 was calculated using a nonsink equation. From Fick's first law, J = −D × [dC(x)]/dx (J is the flux or transfer rate along the donor-to-receptor side, D is the diffusion coefficient, x is the distance from the donor compartment, and C(x) is the concentration in the barrier at the coordinate x in the barrier), the following differential equation is derived: dM r(t)/dt = P app × A × [C d(t) − C r(t)], in which P app is the apparent permeability coefficient (a product of distribution coefficient with diffusion coefficient divided by the barrier thickness), M r is the amount of substance in the receiver chamber, A is the cross-sectional area of the barrier, C d is the donor concentration, and C r is the receiver concentration. This differential equation can be solved to calculate P app using different initial conditions depending on sink or nonsink conditions. In case of sink conditions, the following equation was obtained from the amount of compound transported per time dM r(t)/dt with the receiver concentration set to zero [18, 20]:(1) Mrt/Cd,0=Papp×A×t+c, where P app is the apparent permeability coefficient (cm/s), A is the surface area of the filter (1.12 cm^2), C d,0 is the initial concentration in the donor chamber (μg/mL), t is the time (s), and c is a constant term which vanishes, since M r is initially zero at t = 0.
(§5) The donor concentration at each time point was calculated by taking into account the amount of compound which already permeated through the cell monolayer during that time interval. In this way, the reduction in donor concentration after every sampling was also taken into account.

Caco-2 cell monolayer = assay: Caco-2 cell permeability assay; assay type: in vitro ADME, human
Experimental: as §1, §2, §3, §4, §5

[4] = Brain-to-blood transport after intracerebroventricular injection in mice; assay type: in vivo, ICR-CD-1 mice
Experimental: To evaluate the efflux of pellitorine out of the brain into the blood, a previously described in vivo method was used. Briefly, the ICR-CD-1 mice were anesthetized with 40% (w/V) urethane solution (3 g/kg). Then, the skin of the skull was removed and a hole was made into the lateral ventricle using a 22 G needle marked with tape at 2 mm at the following coordinates: 1 mm lateral and 0.34 mm posterior to the bregma. Using a syringe pump (KDS100, KR analytical, Cheshire, UK), 1 μL of the 1.8 mg/mL pellitorine dose solution as used for the blood-to-brain influx experiment was injected intracerebroventriculary (ICV) at a speed of 360 μL/h for 10 s. […] Just before decapitation, blood was collected from the abdominal aorta and serum was obtained by centrifuging the blood at 10 000 ×g during 15 min at 21°C. Thereafter, brains were collected. The natural logarithm of the pellitorine concentration in brain (ng/g) was plotted versus time. The efflux rate constant k out (min^−1) is obtained from the negative value of the slope of the linear regression, applying first-order kinetics. From k out, the efflux brain half-life (t 1/2,brain) (min) is calculated as follows: t 1/2,brain = ln(2)/k out.

fatty acid uptake = tested on: fatty acid uptake; set-up: method as in PMID 25422952; conditions: in vitro; cited from earlier work
[5] = apical-to-basolateral, DS1, after 120 min
[6] = apical-to-basolateral, DS2, after 120 min
[7] = basolateral-to-apical, DS1, after 120 min
[8] = basolateral-to-apical, DS2, after 120 min

## CCCCC/C=C/C=C/C(=O)NCC(C)C [pellitorine, deca-2E,4E-dienoic acid isobutylamide]
[1]; pellitorine from crude plant extract
  aqueous permeability coefficient K p,aq: 2.3 10^−4 cm/h
[1]; purified pellitorine
  aqueous permeability coefficient K p,aq: 1.1 10^−4 cm/h
[2]
  log P: 3.65
[3]; DS1: 1 μg/mL pellitorine (in Anacyclus pyrethrum extract) in 0.5% EtOH in HBSS, nonsink equation, mean ± SD, n = 2, read-out: apparent permeability coefficient (P app), apical-to-basolateral transport
  Papp A→B at 120 min, 1 μg/mL: 48.08 ± 0.08 ×10⁻⁶ cm/s
[3]; DS1, mean ± SD, n = 2, read-out: apparent permeability coefficient (P app), basolateral-to-apical transport
  Papp B→A at 120 min, 1 μg/mL: 57.5 ± 6.2 ×10⁻⁶ cm/s
[3]; DS2: 56 μg/mL pellitorine (in Anacyclus pyrethrum extract) in 0.5% vitamin E-TPGS/EtOH/PEG 400/PG mixture in HBSS, sink equation, mean ± SD, n = 2, read-out: apparent permeability coefficient (P app), apical-to-basolateral transport
  Papp A→B at 120 min, 56 μg/mL: 5.5 ± 0.06 ×10⁻⁶ cm/s
[3]; DS2, mean ± SD, n = 2, read-out: apparent permeability coefficient (P app), basolateral-to-apical transport
  Papp B→A at 120 min, 56 μg/mL: 2.8 ± 0.09 ×10⁻⁶ cm/s
[3]; after 120 min, read-out: mass balance, total recovery
  recovery at 120 min: 104 to 132%
Caco-2 cell monolayer; DS1
  uptake ratio (P app,ab/P app,ba): 0.84
Caco-2 cell monolayer; DS2
  uptake ratio (P app,ab/P app,ba): 1.96
Caco-2 cell monolayer; [5]
  amount of pellitorine permeated: 0.31 µg
  percentage of applied pellitorine permeated: 56.7%
Caco-2 cell monolayer; [6]
  amount of pellitorine permeated: 2.24 µg
  percentage of applied pellitorine permeated: 9.98%
Caco-2 cell monolayer; [7]
  amount of pellitorine permeated: 0.39 µg
  percentage of applied pellitorine permeated: 23.7%
Caco-2 cell monolayer; [8]
  amount of pellitorine permeated: 1.24 µg
  percentage of applied pellitorine permeated: 1.84%
Caco-2 cell monolayer; both dose solutions
  ratio of P app values between the apical-to-basolateral and the basolateral-to-apical direction or vice versa: ≤ 2
[4]
  efflux transfer constant k out: 0.05 min⁻¹
[4]; female, ICR-CD-1, mouse, icv or intrathecal, 1.8 μg/mouse, read-out: efflux brain half-life t 1/2,brain
  half-life: 13.8 min
Fatty acid uptake
  fatty acid uptake: reduces fatty acid uptake
